From the supplement of paper PMC10307832

How the values were obtained:
Test in all cases: relative viability (nuclei count vs DMSO), 5 days (fraction); higher = more cells survive
Cediranib + Bortezomib = compound: COc1cc2c(Oc3ccc4[nH]c(C)cc4c3F)ncnc2cc1OCCCN1CCCC1 [Cediranib] + CC(C)C[C@H](NC(=O)[C@H](Cc1ccccc1)NC(=O)c1cnccn1)B(O)O [Bortezomib] (partner 0.002 µM)
Method in brief: (§1)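 For relative viability, nuclei counts in treated wells were divided by those in vehicle wells. Lung cancer cell lines had been pin-tool dosed in 1536-well plates the day after seeding and cultured for 5 days, then fixed and stained in one step (final 0.05% Triton X-100, 1% formaldehyde, 1 ug/ml Hoechst) and imaged at 4×. Doses were one drug alone or a fixed anchor-drug dose plus five library-drug doses (not always all listed) in √10 steps, and values are duplicate-plate medians.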

Decitabine + Lapatinib = compound: Nc1ncn([C@H]2C[C@H](O)[C@@H](CO)O2)c(=O)n1 [Decitabine] + CS(=O)(=O)CCNCc1ccc(-c2ccc3ncnc(Nc4ccc(OCc5cccc(F)c5)c(Cl)c4)c3c2)o1 [Lapatinib] (partner 2 µM)
Method in brief: as §1

Decitabine + Pemetrexed = compound: Nc1ncn([C@H]2C[C@H](O)[C@@H](CO)O2)c(=O)n1 [Decitabine] + Nc1nc2[nH]cc(CCc3ccc(C(=O)N[C@@H](CCC(=O)O)C(=O)O)cc3)c2c(=O)[nH]1 [Pemetrexed] (partner 0.2 µM)
Method in brief: as §1

[1] = compound: O=C(C[C@H]1NCCC[C@@H]1O)Cn1cnc2cc(Br)c(Cl)cc2c1=O (racemic) [Halofuginone] + CC1(C)CCC(c2ccc(Cl)cc2)=C(CN2CCN(c3ccc(C(=O)NS(=O)(=O)c4ccc(N[C@H](CCN5CCOCC5)CSc5ccccc5)c(S(=O)(=O)C(F)(F)F)c4)cc3)CC2)C1 [Navitoclax] (partner 0.5 µM)
Method in brief: as §1

NCI-H460
relative viability (Cediranib + Bortezomib; first compound 0.04 µM): 1.06
relative viability (Cediranib + Bortezomib; first compound 0.1265 µM): 1.23
relative viability (Cediranib + Bortezomib; first compound 0.4 µM): 1.01
relative viability (Cediranib + Bortezomib; first compound 1.265 µM): 0.987
relative viability (Cediranib + Bortezomib; first compound 4 µM): 1.39
relative viability (Decitabine + Lapatinib; first compound 0.04 µM): 0.902
relative viability (Decitabine + Lapatinib; first compound 0.1265 µM): 1.06
relative viability (Decitabine + Lapatinib; first compound 0.4 µM): 0.277
relative viability (Decitabine + Lapatinib; first compound 1.265 µM): 0.18
relative viability (Decitabine + Lapatinib; first compound 4 µM): 0.114
relative viability (Decitabine + Pemetrexed; first compound 0.04 µM): 0.0582
relative viability (Decitabine + Pemetrexed; first compound 0.1265 µM): 0.0551
relative viability (Decitabine + Pemetrexed; first compound 0.4 µM): 0.0502
relative viability (Decitabine + Pemetrexed; first compound 1.265 µM): 0.0449
relative viability (Decitabine + Pemetrexed; first compound 4 µM): 0.0449
relative viability ([1]; first compound 0.001 µM): 1.2
relative viability ([1]; first compound 0.003162 µM): 1.3
relative viability ([1]; first compound 0.01 µM): 1.12
relative viability ([1]; first compound 0.03162 µM): 0.232
relative viability ([1]; first compound 0.1 µM): 0.0111

NCI-H520
relative viability (Cediranib + Bortezomib; first compound 0.04 µM): 0.734
relative viability (Cediranib + Bortezomib; first compound 0.4 µM): 0.687
relative viability (Cediranib + Bortezomib; first compound 1.265 µM): 0.462
relative viability (Cediranib + Bortezomib; first compound 4 µM): 0.622
relative viability (Decitabine + Lapatinib; first compound 0.04 µM): 0.798
relative viability (Decitabine + Lapatinib; first compound 0.1265 µM): 0.965
relative viability (Decitabine + Lapatinib; first compound 0.4 µM): 0.499
relative viability (Decitabine + Lapatinib; first compound 1.265 µM): 0.359
relative viability (Decitabine + Lapatinib; first compound 4 µM): 0.267
relative viability (Decitabine + Pemetrexed; first compound 0.04 µM): 0.545
relative viability (Decitabine + Pemetrexed; first compound 0.1265 µM): 0.468
relative viability (Decitabine + Pemetrexed; first compound 0.4 µM): 0.477
relative viability (Decitabine + Pemetrexed; first compound 1.265 µM): 0.317
relative viability (Decitabine + Pemetrexed; first compound 4 µM): 0.293
relative viability ([1]; first compound 0.001 µM): 1.18
relative viability ([1]; first compound 0.003162 µM): 1.05
relative viability ([1]; first compound 0.01 µM): 1.03
relative viability ([1]; first compound 0.03162 µM): 0.835
relative viability ([1]; first compound 0.1 µM): 0.346

NCI-H596
relative viability (Cediranib + Bortezomib; first compound 0.04 µM): 1.05
relative viability (Cediranib + Bortezomib; first compound 0.1265 µM): 1.01
relative viability (Cediranib + Bortezomib; first compound 0.4 µM): 0.831
relative viability (Cediranib + Bortezomib; first compound 1.265 µM): 1
relative viability (Cediranib + Bortezomib; first compound 4 µM): 1.09
relative viability (Decitabine + Lapatinib; first compound 0.04 µM): 1.12
relative viability (Decitabine + Lapatinib; first compound 0.1265 µM): 1.06
relative viability (Decitabine + Lapatinib; first compound 0.4 µM): 0.576
relative viability (Decitabine + Lapatinib; first compound 1.265 µM): 0.954
relative viability (Decitabine + Lapatinib; first compound 4 µM): 0.783
relative viability (Decitabine + Pemetrexed; first compound 0.04 µM): 0.582
relative viability (Decitabine + Pemetrexed; first compound 0.1265 µM): 0.456
relative viability (Decitabine + Pemetrexed; first compound 0.4 µM): 0.338
relative viability (Decitabine + Pemetrexed; first compound 1.265 µM): 0.44
relative viability (Decitabine + Pemetrexed; first compound 4 µM): 0.484
relative viability ([1]; first compound 0.001 µM): 0.911
relative viability ([1]; first compound 0.003162 µM): 0.912
relative viability ([1]; first compound 0.01 µM): 0.997
relative viability ([1]; first compound 0.03162 µM): 1
relative viability ([1]; first compound 0.1 µM): 0.606

NCI-H647
relative viability (Cediranib + Bortezomib; first compound 0.04 µM): 1.1
relative viability (Cediranib + Bortezomib; first compound 0.1265 µM): 1.02
relative viability (Cediranib + Bortezomib; first compound 0.4 µM): 0.845
relative viability (Cediranib + Bortezomib; first compound 1.265 µM): 0.728
relative viability (Cediranib + Bortezomib; first compound 4 µM): 1.16
relative viability (Decitabine + Lapatinib; first compound 0.04 µM): 0.756
relative viability (Decitabine + Lapatinib; first compound 0.1265 µM): 0.77
relative viability (Decitabine + Lapatinib; first compound 0.4 µM): 0.537
relative viability (Decitabine + Lapatinib; first compound 1.265 µM): 0.271
relative viability (Decitabine + Lapatinib; first compound 4 µM): 0.194
relative viability (Decitabine + Pemetrexed; first compound 0.04 µM): 0.168
relative viability (Decitabine + Pemetrexed; first compound 0.1265 µM): 0.149
relative viability (Decitabine + Pemetrexed; first compound 0.4 µM): 0.12
relative viability (Decitabine + Pemetrexed; first compound 1.265 µM): 0.13
relative viability (Decitabine + Pemetrexed; first compound 4 µM): 0.112
relative viability ([1]; first compound 0.001 µM): 1.15
relative viability ([1]; first compound 0.003162 µM): 1.09
relative viability ([1]; first compound 0.01 µM): 1.13
relative viability ([1]; first compound 0.03162 µM): 0.829
relative viability ([1]; first compound 0.1 µM): 0.415

NCI-H838
relative viability (Cediranib + Bortezomib; first compound 0.04 µM): 0.812
relative viability (Cediranib + Bortezomib; first compound 0.1265 µM): 0.557
relative viability (Cediranib + Bortezomib; first compound 0.4 µM): 0.926
relative viability (Cediranib + Bortezomib; first compound 1.265 µM): 0.713
relative viability (Cediranib + Bortezomib; first compound 4 µM): 1.05
relative viability (Decitabine + Lapatinib; first compound 0.04 µM): 0.566
relative viability (Decitabine + Lapatinib; first compound 0.1265 µM): 0.549
relative viability (Decitabine + Lapatinib; first compound 0.4 µM): 0.226
relative viability (Decitabine + Lapatinib; first compound 1.265 µM): 0.307
relative viability (Decitabine + Lapatinib; first compound 4 µM): 0.205
relative viability (Decitabine + Pemetrexed; first compound 0.04 µM): 0.225
relative viability (Decitabine + Pemetrexed; first compound 0.1265 µM): 0.236
relative viability (Decitabine + Pemetrexed; first compound 0.4 µM): 0.2
relative viability (Decitabine + Pemetrexed; first compound 1.265 µM): 0.19
relative viability (Decitabine + Pemetrexed; first compound 4 µM): 0.198
relative viability ([1]; first compound 0.001 µM): 1.17
relative viability ([1]; first compound 0.003162 µM): 1.24
relative viability ([1]; first compound 0.01 µM): 0.994
relative viability ([1]; first compound 0.03162 µM): 0.954
relative viability ([1]; first compound 0.1 µM): 0.208

NCI-H1355
relative viability (Cediranib + Bortezomib; first compound 0.04 µM): 1.18
relative viability (Cediranib + Bortezomib; first compound 0.1265 µM): 1.17
relative viability (Cediranib + Bortezomib; first compound 0.4 µM): 1.23
relative viability (Cediranib + Bortezomib; first compound 1.265 µM): 1.24
relative viability (Cediranib + Bortezomib; first compound 4 µM): 1.21
relative viability (Decitabine + Lapatinib; first compound 0.04 µM): 0.884
relative viability (Decitabine + Lapatinib; first compound 0.1265 µM): 0.592
relative viability (Decitabine + Lapatinib; first compound 0.4 µM): 0.444
relative viability (Decitabine + Lapatinib; first compound 1.265 µM): 0.286
relative viability (Decitabine + Lapatinib; first compound 4 µM): 0.279
relative viability (Decitabine + Pemetrexed; first compound 0.04 µM): 0.701
relative viability (Decitabine + Pemetrexed; first compound 0.1265 µM): 0.513
relative viability (Decitabine + Pemetrexed; first compound 0.4 µM): 0.38
relative viability (Decitabine + Pemetrexed; first compound 1.265 µM): 0.323
relative viability (Decitabine + Pemetrexed; first compound 4 µM): 0.314
relative viability ([1]; first compound 0.001 µM): 0.929
relative viability ([1]; first compound 0.003162 µM): 0.949
relative viability ([1]; first compound 0.01 µM): 0.902
relative viability ([1]; first compound 0.03162 µM): 1.08
relative viability ([1]; first compound 0.1 µM): 0.715

NCI-H1437
relative viability (Cediranib + Bortezomib; first compound 0.04 µM): 0.55
relative viability (Cediranib + Bortezomib; first compound 0.1265 µM): 0.407
relative viability (Cediranib + Bortezomib; first compound 0.4 µM): 0.554
relative viability (Cediranib + Bortezomib; first compound 1.265 µM): 0.565
relative viability (Cediranib + Bortezomib; first compound 4 µM): 0.673
relative viability (Decitabine + Lapatinib; first compound 0.04 µM): 0.505
relative viability (Decitabine + Lapatinib; first compound 0.1265 µM): 0.582
relative viability (Decitabine + Lapatinib; first compound 0.4 µM): 0.274
relative viability (Decitabine + Lapatinib; first compound 1.265 µM): 0.235
relative viability (Decitabine + Lapatinib; first compound 4 µM): 0.221
relative viability (Decitabine + Pemetrexed; first compound 0.04 µM): 0.318
relative viability (Decitabine + Pemetrexed; first compound 0.1265 µM): 0.276
relative viability (Decitabine + Pemetrexed; first compound 0.4 µM): 0.295
relative viability (Decitabine + Pemetrexed; first compound 1.265 µM): 0.235
relative viability (Decitabine + Pemetrexed; first compound 4 µM): 0.214
relative viability ([1]; first compound 0.001 µM): 1.09
relative viability ([1]; first compound 0.003162 µM): 1.13
relative viability ([1]; first compound 0.01 µM): 1.06
relative viability ([1]; first compound 0.03162 µM): 0.976
relative viability ([1]; first compound 0.1 µM): 0.436

NCI-H1650
relative viability (Cediranib + Bortezomib; first compound 0.04 µM): 0.201
relative viability (Cediranib + Bortezomib; first compound 0.1265 µM): 0.169
relative viability (Cediranib + Bortezomib; first compound 0.4 µM): 0.205
relative viability (Cediranib + Bortezomib; first compound 1.265 µM): 0.223
relative viability (Cediranib + Bortezomib; first compound 4 µM): 0.194
relative viability (Decitabine + Lapatinib; first compound 0.04 µM): 0.595
relative viability (Decitabine + Lapatinib; first compound 0.1265 µM): 0.649
relative viability (Decitabine + Lapatinib; first compound 0.4 µM): 0.217
relative viability (Decitabine + Lapatinib; first compound 1.265 µM): 0.494
relative viability (Decitabine + Lapatinib; first compound 4 µM): 0.372
relative viability (Decitabine + Pemetrexed; first compound 0.04 µM): 0.325
relative viability (Decitabine + Pemetrexed; first compound 0.1265 µM): 0.311
relative viability (Decitabine + Pemetrexed; first compound 0.4 µM): 0.27
relative viability (Decitabine + Pemetrexed; first compound 1.265 µM): 0.25
relative viability (Decitabine + Pemetrexed; first compound 4 µM): 0.25
relative viability ([1]; first compound 0.001 µM): 1.37
relative viability ([1]; first compound 0.003162 µM): 1.23
relative viability ([1]; first compound 0.01 µM): 1.18
relative viability ([1]; first compound 0.03162 µM): 0.815
relative viability ([1]; first compound 0.1 µM): 0.166
